In paper PMC8703450, “New Heterocyclic Combretastatin A-4 Analogs: Synthesis and Biological Activity of Styryl-2(3H)-benzothiazolones” (Pharmaceuticals, 2021):
Where two headings read alike, the source gives them in different places.

Key:
[1] = system: HT-29 cells; assay: MTT cytotoxicity assay, HT-29; type: cell-based, human; conditions: for IC50: Homo sapiens
Procedure: (§1) All tested compounds were dissolved in DMSO at 25 mM initial concentration and diluted with medium to obtain the working concentrations (0.01 nM–250 µM). Serial drug dilutions were prepared in medium immediately before each experiment. The DMSO working concentration in the medium was […]. For the MTT assay, cells were seeded into 96-well microtitre plates at a density of 1 × 10^4 in 100 µL complete medium per well. They were further incubated for 24 h, followed by treatment with CA-4 analogs up to 72 h. Cell viability was determined using the MTT assay. Ten µL of MTT solution (5 mg/mL) was added to each well and further incubated for 3 h at 37 °C. To dissolve the formazan product, 100 µL/well of 99.5% isopropanol was added. Cell viability was determined by measuring absorbance at 550/630 nm using a DTX880 plate reader (Beckman Coulter, USA). Results, expressed as concentrations that inhibit 20% (IC20), 50% (IC50), and 80% (IC80) of cell growth, were calculated using GraphPad Prism 8.0.1.
(§2) Table S 3.1. Description of eukaryotic cell lines used for MTT assay. […]
HT-29 h colon, colorectal Radostina adenocarcinoma Alexandrova 3.1 g/L D-Glucose […]
colon, colon Kindly provided U/mL streptomycin

[2] = system: MDA-MB-231 cells; assay: MTT cytotoxicity assay, MDA-MB-231; type: cell-based, human
Procedure: as §1, §2
Kindly provided 3.1 g/L Glucose,
mammary by Prof. Iana DMEM/F12 with
Breast MDA- gland/breast; derived Tsoneva 10% FBS, 100 U/mL
MB-231 h from metastatic site: (IBPhBME – penicillin, 100 U/mL
pleural effusion; BAS) streptomycin (Lonza). […]

[3] = MTT cytotoxicity assay, BEAS-2B control cells; type: cell-based; conditions: human, read-out: Cytostatic activity (% viable cells)
Procedure: as §1
Table S 3.1. Description of eukaryotic cell lines used for MTT assay.
Panel Cell line Origin Tissue, characteristics Source Culture conditions
(h) lung carcinoma ATCC, CCL-185 U/mL penicillin, 100
lung, bronchus; insulin, rhEGF, GA-
BEAS-2B h epithelial virus ATCC, CRL- 1000, BPE,

[4] = system: EA.hy926 cells; assay: Clonogenic survival assay; type: cell-based, human; conditions: 72 h treatment + 6 days recovery
Procedure: EA.hy926 cells were seeded at 300 cells/well on a 6-well plate and incubated for 24 h. The cells were treated with different concentrations of test compounds for 72 h. After six additional days of growth in a fresh medium to form visible colonies, cells were washed with phosphate-buffered saline (PBS, pH 7.4) and stained with crystal violet (0.5%, w/v) in 6% glutaraldehyde. After 30 min of incubation, the plates were washed with tap water, dried, photographed, and analyzed using ImageJ [79]. Raw data were normalized to the corresponding DMSO control for each independent experiment. After normalization, statistically significant differences for colony-forming efficiency (CFE) values versus […] were calculated.

[5] = system: colchicine binding site of β-tubulin; assay: Colchicine-binding site assay (EBI competition) in EA.hy926 cells; type: cell-based, human; conditions: then 100 µM EBI 2 h, Western blot
Procedure: N,N′-ethylene-bis(iodoacetamide) (abcam, ab144980) was dissolved in DMSO to a final concentration of 50 mM. EA.hy926 cells were seeded at density of 1 × 10^5 cells/mL and incubated overnight. […] Cells were lysed with Laemmli buffer and subjected to Western blot analysis for β-tubulin [66, 67]. The detailed Western blot method is as shown above.

[6] = system: α,β-tubulin; assay: In vitro quantification of polymeric vs. soluble tubulin fractions in EA.hy926 cells; type: cell-based, human; conditions: for soluble vs. polymerized tubulin ratio: EA.hy926, 1 µM, 6 h, DMSO control 2.33 ± 0.14
Procedure: To assess the early effects on the microtubule cytoskeleton in vitro, EA.hy926 cells were cultured for 24 h in 6-cm dishes (3 × 10^5 cells). They were exposed to […] (control), 1 μM CA-4, paclitaxel, or increasing concentrations of 26Z (50, 100, 250, 2500, 10,000 nM) for 6 h. Cells were washed with PBS and lysed directly in the dishes with hypotonic lysis buffer (20 mM Tris-HCl, 1 mM MgCl2, 2 mM EGTA, 0.5% Triton X-100, glycerol 10%, pH 6.8), supplemented with protease inhibitors (2 μg/mL leupeptin, 2 μg/mL pepstatin, 0.4 mM Na vanadate, 0.5 mM PMSF, 1 mM DTT), for 3 min at 30 °C. The soluble fraction was immediately collected, mixed with 5× sample buffer, and boiled at 95 °C for 5 min. The polymerized fraction was collected directly from the culture dish following 10 min of incubation at room temperature with 1× sample buffer.
For the concentration-dependent assay, the cells were harvested by scraping and centrifuged at 1000 g for 5 min, and then lysed with the hypotonic cell lysis buffer for 10 min at room temperature. Tubulin fractions were obtained by centrifugation at 12,000 × g for 10 min.
Equal volumes of the samples were subjected to 10% SDS-PAGE followed by western blotting. Detection of β-tubulin content was accomplished with an anti-β-tubulin mouse monoclonal antibody (sc-101527, Santa Cruz Biotechnology).

[7] = system: caspase 3, 8 and 9; assay: Western blot analysis of caspase activation; type: cell-based, human; conditions: EA.hy926, 24 h
Procedure: A total of 7 × 10^5 cells was seeded in 100-mm dishes. On the next day, cells were treated with the corresponding concentrations of CA-4 and 26Z. After 24 h, treated cells were collected and lysed with lysis buffer (50 mM HEPES, pH 7.7, 250 mM KCl, 10% glycerol, 0.1% Nonidet P-40) containing protease inhibitors (0.4 mM sodium vanadate, 0.5 mM PMSF, 1 mM DTT, […]) by incubation on ice for 30 min and overnight at −20 °C [80]. The concentration of obtained total cell protein lysates was determined by the method of Bradford. Samples were separated on 12% polyacrylamide gels and transferred to nitrocellulose or PVDF membranes. Immunoblotting was performed by blocking in 3.5% non-fat dried milk in PBS, with subsequent incubation for 1 h with primary antibodies for caspase 3 (sc-56053, Santa Cruz Biotechnology), caspase 8 (sc-81656, Santa Cruz Biotechnology), caspase 9 (sc-8355, Santa Cruz Biotechnology), and PARP-1 (sc-8007, Santa Cruz Biotechnology), diluted in PBS containing 0.05% Tween-20. This was followed by incubation with a peroxidase-conjugated secondary antibody m-Igk BP-HRP (sc-516102, Santa Cruz Biotechnology) or a donkey anti-rabbit IgG-HRP (sc-2313, Santa Cruz Biotechnology) for 1 h, and detection of the chemiluminescent signal was accomplished with ECL Select^TM Western Blotting Detection Reagent (Amersham) on X-ray film. β–actin was used as a loading control and mouse monoclonal antibody was used following the manufacturer’s instruction (sc-47778, Santa Cruz Biotechnology).

COc1ccc(/C=C\c2cc(OC)c(OC)c(OC)c2)cc1O [CA-4, Combretastatin A-4]
IC50 ([1]; HT-29 cells, 72 h, MTT, read-out: IC50): 2160 ± 230 nM | Cytostatic activity (% viable cells) ([2]; MDA-MB-231 cells, 72 h, MTT): 55% | viability at 72 h ([3]; BEAS-2B cells): 80% | inhibition at 0.001 µM ([4]; Homo sapiens, EA.hy 926, EA.hy926, 1 nM, read-out: inhibition of endothelial cell colony formation): 80% | tubulin EBI-adduct formation ([5]; EA.hy926, 10 μM compound 2 h): inhibited | soluble vs. polymerized tubulin ratio [6]: 3.3 ± 0.61 | active forms of effector caspase 3 ([7]; CA-4 IC50 and 26Z IC20): to a lesser extent

COc1cc(/C=C\c2ccc3c(c2)sc(=O)n3C)cc(OC)c1OC [Compound 26Z, (Z)-3-methyl-6-(3,4,5-trimethoxystyryl)-2(3H)-benzothiazolone]
greater cytotoxic effect compared to CA-4 ([1]; HT-29 cells, 72 h): more than 250 times | IC50 ([1]; HT-29, 72 h): 8 ± 1 nM | IC50 ([2]; Homo sapiens, MDA-MB-231, 72 h): 1350 ± 420 nM | viability at 72 h [3]: 80% | decrease in colony number ([4]; EA.hy926, 250 nM): 90% | reduction in colony formation ([4]; EA.hy926, 2.5, 10 and 25 µM): about 100% | tubulin EBI-adduct formation ([5]; EA.hy926, 25 µM compound 2 h): inhibited | soluble vs. polymerized tubulin ratio [6]: 2.74 ± 0.43 | concentration above which the depolymerizing effect is clearly visible ([6]; EA.hy926, 6 h, 0.01–10 μM): higher than 0.05 μM | activation of caspases 8 and 9 [7]: activated | active forms of effector caspase 3 ([7]; 26Z at IC50 and IC80): detected | active forms of effector caspase 3 ([7]; CA-4 IC50 and 26Z IC20): to a lesser extent
